Laboratory results reported in patent publication US20070078096A1, “Buffered drug formulations for transdermal electrotransport delivery” (priority 1997, published 2007).
In brackets after ≈: the same amount, converted by molar mass. Residues, ends and D or L forms follow the SMILES beside them.

Columns and labels:
[1] = Solubility of dipeptides at their pI; type: physicochemical
Source text: (§1) Table 1 lists conductivities and solubilities of selected dipeptides useful in the present invention, at their pI.

[2] = pKa, pI and charge distribution of buffers; conditions: for % salt: fraction of dipeptide carrying a net charge in aqueous solution at pH equal to pI
Source text: At the pI, three species coexist.
In an electric field these negative species move in the opposite direction of their positive associated counterions.
Choice of the dipeptide buffer will be on a case-by-case basis depending on the drug compound and the desired level of pH control and conductivity of the formulation.

[3] = Conductivity of dipeptides at their pI; type: physicochemical
Source text: as §1

SMILES: NCCCC[C@H](N)C(=O)N[C@@H](CCC(=O)O)C(=O)O [Lys-Glu] (H-Lys-Glu-OH)
- Solubility [1]: 500 mM (≈ 138 mg/mL)
- pI ([2]; Table 1): 6.06
- pI ([2]; Table 2): 6.06
- % salt [2]: 3%
- Conductivity at 10^−2 Molar [3]: 8 μS/cm

SMILES: C[C@H](NC(=O)[C@@H](N)Cc1cnc[nH]1)C(=O)O [His-Ala] (H-His-Ala-OH)
- Solubility [1]: 500 mM (≈ 113 mg/mL)
- pka A [2]: 2.48
- pI ([2]; Table 1): 6.95
- pI ([2]; Table 2): 6.95
- % salt [2]: 22%
- Conductivity at 10^−2 Molar [3]: 60 μS/cm
